# In EP2061765B1, “Serine-threonine protein kinase and PARP modulators” (Senhwa Biosciences, Inc., priority 2006, dated 2008):
# What was measured:
# Assay in all cases: Cell proliferation assay (Alamar Blue)
# Assay type in all cases: cell-based
# [1] = tested on: K-562; details: Homo sapiens, K562, 96 h, K-562 cells, four days
# [2] = tested on: Raji; details: Homo sapiens, 96 h, Raji cells, four days
# Outline: (§1)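 Cells plated at 4,000-5,000 per well, then exposed to compound for four days at 37°C, 5% CO2. Alamar Blue added for a further 4 h; fluorescence read at ex 544/em 590 nm. Medium-only wells served as blank, cells without compound as untreated control.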
# [3] = tested on: LNCaP; details: Homo sapiens, 96 h, LNCaP cells, four days
# Outline: as §1
# [4] = tested on: MDAMB231; details: Homo sapiens, MDA-MB-231, 96 h, MDAMB231 cells, four days
# Outline: as §1
# [5] = tested on: MCF-7; details: Homo sapiens, MCF7, 96 h, MCF-7 cells, four days
# Outline: as §1
# [6] = tested on: HL-60; details: Homo sapiens, 96 h, HL-60 cells, four days
# Outline: as §1
# [7] = tested on: A549; details: Homo sapiens, 96 h, A549 cells, four days
# Outline: as §1
# [8] = tested on: PanC1; details: Homo sapiens, PANC-1, 96 h, PanC1 cells, four days
# Outline: as §1
# [9] = tested on: SK-OV-3; details: Homo sapiens, 96 h, SK-OV-3 cells, four days
# Outline: as §1
# [10] = tested on: HT29; details: Homo sapiens, HT-29, 96 h, HT29 cells, four days
# Outline: as §1
# [11] = tested on: BxPC3; details: Homo sapiens, BXPC-3, 96 h, BxPC3 cells, four days
# Outline: as §1
# [12] = tested on: COLO205; details: Homo sapiens, COLO 205, 96 h, COLO205 cells, four days
# Outline: as §1
# [13] = tested on: HL-60/MX2; details: Homo sapiens, HL60/MX2, 96 h, HL-60/MX2 cells, four days
# Outline: as §1
# [14] = tested on: H460; details: Homo sapiens, NCI-H460, 96 h, H460 cells, four days
# Outline: as §1
# [15] = tested on: MCF-10A; details: Homo sapiens, 96 h, MCF-10A cells, four days
# Outline: as §1
# [16] = tested on: HCT-116; details: Homo sapiens, 96 h, HCT-116 cells, four days;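 also: fluorescence of unreduced Alamar Blue read roughly 4 h after dye addition, with wells given medium instead of compound serving as controls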
# [17] = tested on: MiaPaCa; details: Homo sapiens, MIA PaCa-2, 96 h, MiaPaCa cells, four days
# Outline: as §1
# [18] = tested on: Hs578T; details: Homo sapiens, Hs-578T, 96 h, Hs578T cells, four days
# Outline: as §1
# [19] = tested on: A375; details: Homo sapiens, A-375, 96 h, A375 cells, four days
# Outline: as §1
# [20] = tested on: PC3; details: Homo sapiens, PC-3, 96 h, PC3 cells, four days
# Outline: as §1
# [21] = tested on: H1299; details: Homo sapiens, NCI-H1299, 96 h, H1299 cells, four days
# Outline: as §1
# [22] = tested on: Jurkat; details: Homo sapiens, 96 h, Jurkat cells, four days
# Outline: as §1
IC50 [1] [µM],IC50 [2] [µM],IC50 [3] [µM],IC50 [4] [µM],IC50 [5] [µM],IC50 [6] [µM],IC50 [7] [µM],IC50 [8] [µM],IC50 [9] [µM],IC50 [10] [µM],IC50 [11] [µM],IC50 [12] [µM],IC50 [14] [µM],Compound,also measured
–,–,–,–,–,–,–,15.9,1.06,15.3,1.83,9.56,4.06,CNc1ncc2c(n1)c(Nc1ccccc1)nc1cc(C(=O)O)ccc12 [drawing 455],IC50 [13]: 5.68 µM
–,–,–,–,–,–,–,9.34,6.98,12.4,3.34,5.69,4.19,O=C(O)c1ccc2c(c1)nc(Nc1cc(F)cc(F)c1)c1ncncc12 [drawing 449],IC50 [15]: 1.08 µM
3.26,6.35,10.8,11,1.89,4.81,27.4,–,–,–,–,–,–,O=C(O)c1ccc2c(c1)nc(Nc1cc(F)cc(F)c1)c1ccncc12 [drawing 387],–
–,–,–,–,–,–,–,3.79,14.4,17,3.48,6.16,6.16,O=C(O)c1ccc2c(c1)nc(Nc1cccc(F)c1)c1ncncc12 [drawing 450],–
–,–,–,–,–,–,–,> 50,–,41.8,3.62,–,–,N#Cc1cccc(Nc2nc3cc(C(=O)O)ccc3c3cnccc23)c1 [drawing 460],–
–,–,–,–,–,–,–,1.84,7.33,–,1.5,2.2,8.69,O=C(O)c1ccc2c(c1)nc(Nc1ccc(F)c(Cl)c1)c1ccncc12 [drawing 444],–

# The remaining lines, values behind:
Compound,IC50 [1] [µM],IC50 [2] [µM],IC50 [3] [µM],IC50 [4] [µM],IC50 [5] [µM],IC50 [6] [µM],IC50 [7] [µM],IC50 [8] [µM],IC50 [9] [µM],IC50 [10] [µM],IC50 [11] [µM],IC50 [12] [µM],IC50 [14] [µM],also measured
O=C(O)c1ccc2c(c1)nc(Nc1ccccc1)c1ccncc12 [drawing 372],4.01,13.7,8.18,2.66,10.8,4.86,4.16,–,–,–,–,–,–,–
C#Cc1cccc(Nc2nc3cc(C(=O)O)ccc3c3cnccc23)c1 [drawing 385],3.33,4.28,17.1,11.8,1.43,5.59,30.2,–,–,–,–,–,–,–
C#Cc1cccc(Nc2nc3cc(C(=O)O)ccc3c3cncnc23)c1 [drawing 380],1.2,3.38,1.4,4.25,1.27,4.49,21.2,–,–,–,–,–,–,–
C#Cc1cccc(Nc2nc3cc(C(=O)O)ccc3c3cncnc23)c1 [drawing 452],–,–,–,–,–,–,–,2.34,20.2,12.4,2.58,7.04,7.33,IC50 [15]: 0.64 µM; IC50 [13]: 8.81 µM
O=C(O)c1ccc2c(c1)nc(Nc1cccc(Cl)c1)c1ncncc12 [drawing 379],1.13,–,1.56,1.18,1.79,7.35,28.5,–,–,–,–,–,–,–
O=C(O)c1ccc2c(c1)nc(Nc1ccc(F)c(Cl)c1)c1ccncc12 [drawing 291],–,–,–,–,–,–,–,–,–,–,–,–,–,IC50 [16]: 4.34 µM; IC50 [17]: 3.06 µM; IC50 [18]: 3.31 µM; IC50 [19]: 3.21 µM; IC50 [20]: 4.86 µM; IC50 [21]: 3.08 µM; IC50 [22]: 2.68 µM
O=C(O)c1ccc2c(c1)nc(Nc1cccc(Cl)c1)c1ccncc12 [drawing 376],2.99,3.32,4.89,–,17.7,2.64,6.59,–,–,–,–,–,–,–
CNc1ncc2c(n1)c(Nc1ccccc1)nc1cc(C(=O)O)ccc12 [drawing 383],–,4.97,1.44,2.38,3.4,0.73,13.9,–,–,–,–,–,–,–
O=C(O)c1ccc2c(c1)nc(Nc1ccc(F)c(Cl)c1)c1ccncc12 [drawing 373],4.95,4.51,4.57,6.13,8.24,1.92,6.83,–,–,–,–,–,–,–
O=C(O)c1ccc2c(c1)nc(Nc1cccc(F)c1)c1ncncc12 [drawing 378],1.77,4.51,1.36,0.84,1.06,9.68,14.1,–,–,–,–,–,–,–
